Results as given in US20230219957A1, “SMALL MOLECULE CB002-ANALOGES RESTORE THE P53 PATHWAY AND TARGET S-PHASE CHECKPOINT” (Brown University, priority 2020, published 2023).

Key:
SW480 cells = assay: Microarray transcriptomic analysis with ingenuity pathway analysis; format: cell-based, human; details: twelve hours treatment
Experimental: Microarray analysis. SW480 cells were seeded at a density of 1×10^6 in 10 cm dishes. After being adhered, the cells were treated with dimethyl sulfoxide vehicle control or CB002-analog #4. Floating cells were collected, and adherent cells were trypsinized at twelve hours of treatment. The cells were pelleted. According to manufacturer instructions, RNA was isolated from the cells using a Quick-RNA™ MiniPrep (#R1055, Zymo Research Irvine, Calif., USA). RNA quality was tested using an Agilent Bioanalyzer RNA kit. When the RNA quality was enough, RNA was amplified and labeled using the low RNA input linear amplification kit commercially available from Agilent Technologies, Santa Clara, Calif., USA. Labeled cDNA was hybridized onto Affymetrix Human Gene 2.0-ST array. Significant changes in gene expression were determined at 1.5-fold either up or down in dimethyl sulfoxide vehicle control versus CB002-analog #4.

[1] = system: human SW480 colorectal cancer cells; assay: Tumor xenograft efficacy in NSG mice; format: in vivo; details: 50 mg/kg oral gavage three times per week, 5-weeks of treatment
Experimental: (§1) Drug efficacy using in vivo tumor xenografts. In vivo drug efficacy studies were performed on ten NSG female randomized mice per cohort. The mice had tested negative for any pathogen. Tumor inoculation was induced by subcutaneous injection in the left and right dorsal flank, each with a 150 μL suspension of 1-5×10^6 human colon cancer cells in phosphate-buffered saline with Matrigel (1:1). After tumor size reached 100 mm^3, mice were treated 3×/week with dimethyl sulfoxide vehicle or CB002-analog #4 via oral gavage (22-gauge needle) in a solution of 10% dimethyl sulfoxide, 20% Kolliphor® EL (Sigma cat. no. C5135), and 70% phosphate-buffered saline. Mouse weight and tumor measurements were recorded one-two times per week. Tumor volume was calculated as V=0.5*L*W^2, where L is length and W is the width of the tumor. At the end of the assay, mice were euthanized by CO2. All in vivo procedures were performed according to an approved Institutional Animal Care and Use Committee (IACUC) protocol.

Noxa = Noxa protein expression by immunoblotting; format: cell-based, human; details: for Noxa protein induction upon knockdown of ATF3/4: SW480 cells, 100 μM CB002 or 25 μM CB002-analog #4
Experimental: Immunoblotting. After treatment, cells were harvested by trypsinization, washed with phosphate-buffered saline, and lysed with RIPA buffer (Sigma-Aldrich) for thirty minutes to one hour at 4° C. Protein lysates were spun down. The supernatant was collected. Protein quantification was performed using a Pierce™ BCA Protein Assay Kit (Thermo Fisher Scientific, Waltham, Mass., USA). 1× NuPAGE® LDS sample buffer (Thermo Fisher Scientific, Waltham, Mass., USA) and 2-Mercaptoethanol as the reducing agent (Sigma-Aldrich) were added to protein lysates followed by boiling for fifteen minutes at 95° C. Equal total protein amounts samples were loaded into NuPAGE™ Novex™ 4-12% Bis-Tris Protein Gels (1.5 mm, Thermo Fisher Scientific, Waltham, Mass., USA). Gel electrophoresis was performed with NuPAGE™ MES SDS Running Buffer. Proteins were transferred onto an Immobilon-P membrane (PVDF, EMD Millipore, Taunton, Mass., USA) using a Bio-Rad system with a 10% Tris-Glycine and 10% methanol transfer buffer diluted in distilled and deionized water. After transfer, membranes were blocked with 10% milk in Tris-buffered saline with Tween 20 (TBST) solution. The membranes were then incubated overnight with the primary antibody, washed with TBST, and incubated with secondary antibody for one hour. Incubations were performed in 5% milk in TBST solution. Signal was detected by using a chemiluminescent detection kit, followed by autoradiography. The following antibodies were used: p53 (DO-1, 1:1000, Santa Cruz, Calif., USA), p73 (1:1000, Bethyl Laboratories), p21, and NOXA (1:250, EMD Millipore, Taunton, Mass., USA), DR5, FADD, cleaved caspase 3, cleaved caspase 8, cleaved PARP, and LC3B (1:1000, Cell Signaling Technology, Inc., Danvers, Mass. USA), and β-actin (1:10000, Sigma-Aldrich, St. Louis, Mo., USA).
Immunoblotting (additional method). […] Total protein per sample was determined using a Pierce™ BCA Protein Assay Kit (Thermo Fisher Scientific, Waltham, Mass., USA). […] Signal was detected using a chemiluminescent detection kit, followed by autoradiography. […]

[2] = design: species or system mice; details: in vivo, po, 50 mg/kg
Experimental: as §1

SW480 colon cancer cells = assay: Immunoblot of cell cycle markers; format: cell-based, human; details: for M-phase marker pH3(Ser10) / pcdc2(Tyr15) and pcdc25c(Ser16) expression: combination with etoposide; for S-phase marker p-RPA-RPA2(S8) expression: synchronized SW480, time-course after release
Experimental: Immunoblotting (additional method). After treatment, floating cells were collected, and adherent cells were trypsinized, washed with phosphate-buffered saline, and lysed with RIPA buffer (Sigma-Aldrich, St. Louis, Mo., USA) for thirty minutes to one hour at 4° C. Protein lysates were pelleted. The supernatant was collected. Total protein per sample was determined using a Pierce™ BCA Protein Assay Kit (Thermo Fisher Scientific, Waltham, Mass., USA). Proteins were denatured using 1× NuPAGE® LDS sample buffer (Thermo Fisher Scientific, Waltham, Mass., USA) and reduced with 2-mercaptoethanol (Sigma-Aldrich, St. Louis, Mo., USA). Protein lysates were boiled for fifteen min at 95° C. After protein normalization, samples were loaded into NuPAGE™ Novex™ 4-12% Bis-Tris Protein Gels (Thermo Fisher Scientific, Waltham, Mass., USA). Gel electrophoresis was performed with NuPAGE™ MES SDS Running Buffer. Proteins were transferred onto an Immobilon-P membrane (PVDF, EMD Millipore, Taunton, Mass., USA) using a Bio-Rad system with a 10% Tris-Glycine and 10% methanol transfer buffer diluted in distilled and deionized water. Membranes were blocked with 10% milk in Tris-buffered saline with Tween 20 (TBST) solution. The membranes were incubated overnight with the primary antibody, washed with TBST, and incubated with secondary antibody for one hour. Primary antibody incubations were performed in 5% milk or 5% bovine serum albumin in TBST solution as per manufacturer instructions. Signal was detected using a chemiluminescent detection kit, followed by autoradiography. The following antibodies were used: p53 (1:1000, #sc-126, Santa Cruz Biotechnology, Santa Cruz, Calif., USA), p73 (1:1000, #A300-126A, Bethyl Laboratories), Noxa (1:250, #OP180, EMD Millipore, Taunton, Mass., USA), DR5 (#3696), cleaved PARP (#9546), phospho-RPA32/RPA2 (#54762), p-cdc2 (#9111), p-cdc25c, pH3 (#3377) (1:1,000; Cell Signaling Technology, Inc., Danvers, Mass. USA) and β-actin (1:10000, A5441, Sigma).
Cell synchronization. Synchronized cells were synchronized by double thymidine block. Cells were treated with […] thymidine for sixteen hours. The drug was removed and replaced by complete growth media for eight hours. Cells were treated for the second time with […] thymidine for sixteen hours. At this point, cells were treated and harvested.

Row | Compound | p53 target genes Noxa, Puma, and DR5 expression (SW480 cells) | p53 upstream regulator activation z-score (IPA) (SW480 cells) | tumor volume [1] | Noxa protein induction upon knockdown of ATF3/4 (Noxa) | tolerability by mouse body weights [2] | M-phase marker pH3(Ser10) (SW480 colon cancer cells; synchronized SW480) | pcdc2(Tyr15) and pcdc25c(Ser16) expression (SW480 colon cancer cells; synchronized SW480) | pcdc2(Tyr15) and pcdc25c(Ser16) protein expression (SW480 colon cancer cells; single agent, synchronized SW480) | S-phase marker p-RPA-RPA2(S8) expression (SW480 colon cancer cells) | p21 (SW480 colon cancer cells; time-course after synchronization release) | Cyclin A expression (SW480 colon cancer cells; time-course, compared to DMSO and etoposide) | Noxa expression (Noxa; 24 hours, DLD-1 and SW480 cells)
1 | Cn1c(=O)c2[nH]c(Nc3cccc(C(F)(F)F)c3)nc2n(C)c1=O [CB002-analog #4] | upregulated | 3.3 | lower tumor volume than vehicle control | abrogated Noxa protein induction | well-tolerated | does not increase | decrease in expression | decreased | increased compared to DMSO | increase | did not decrease over time | –
2 | Cn1c(=O)c2[nH]c(Nc3ccccc3)nc2n(C)c1=O [CB002] | – | – | – | abrogated Noxa protein induction | – | does not increase | decrease in expression | – | increase | – | – | induce Noxa expression
